Test results reported in patent US12150940B2, “WASp-protecting small molecules, compositions, methods and uses thereof in the treatment of innate and acquired immune-related disorders or conditions” (BAR ILAN UNIVERSITY, priority 2016, dated 2024).
Peptide text beside a SMILES is read from it. * marks the point of attachment. Cbz = O=C(OCc1ccccc1)*

Target: T1, WASp (Homo sapiens, UniProt P42768)
T1 construct: endogenous in cells; host or cells: primary human platelets from healthy donors
T1 sequence (P42768 1-502): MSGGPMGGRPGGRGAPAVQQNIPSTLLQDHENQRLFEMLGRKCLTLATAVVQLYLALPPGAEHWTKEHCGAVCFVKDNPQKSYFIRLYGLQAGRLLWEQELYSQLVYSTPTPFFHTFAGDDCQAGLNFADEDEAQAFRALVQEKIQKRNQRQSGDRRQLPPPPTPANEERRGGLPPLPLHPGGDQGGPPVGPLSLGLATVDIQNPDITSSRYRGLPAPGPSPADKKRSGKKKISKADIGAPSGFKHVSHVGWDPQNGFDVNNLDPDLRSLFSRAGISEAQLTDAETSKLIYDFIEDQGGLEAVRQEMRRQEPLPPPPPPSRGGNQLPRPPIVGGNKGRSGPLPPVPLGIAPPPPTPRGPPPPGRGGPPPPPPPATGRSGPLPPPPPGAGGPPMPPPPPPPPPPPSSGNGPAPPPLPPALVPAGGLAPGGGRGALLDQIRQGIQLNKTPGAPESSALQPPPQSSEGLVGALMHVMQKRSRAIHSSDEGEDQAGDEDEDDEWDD
Assay: WASp expression in TRAP-6-activated platelets (western blot)
Format: cell-based
Experimental: FIG. 4A-4B. Freshly-isolated platelets were incubated with SMC #6 or control at 37° C. for the indicated times. The platelets were either stimulated (+) with TRAP-6 (10 μM) or left unstimulated (−), followed by lysis. Lysates were analyzed for WASp expression by immunoblotting with anti-WASp and anti-GAPDH as loading control (FIG. 4A). Relative WASp expression was determined by densitometric analysis and is presented in a summarizing graph of FIG. 4B. Error bars represent the SE from the mean. P values are presented and were calculated by two-tailed Student's t-test. Data are representative of three independent experiments.
Jurkat T-cells (FIG. 5A) or Freshly-isolated PBMCs (FIG. 5B) were incubated for 15 min at 37° C. with either control or the indicated WASp-binding SMCs, followed by co-stimulation with anti-CD3 and anti-CD28 and lysis. Freshly-isolated platelets were incubated for 15 min at 37° C. with either control or the indicated WASp-binding SMCs, followed by stimulation with TRAP-6 (10 μM) and lysis (FIG. 5C). Lysates were analyzed for WASp expression by immunoblotting with anti-WASp and anti-GAPDH as loading control. Western blot is representative of three independent experiments. […] Relative WASp expression was determined by densitometric analysis. […]
FIG. 6A-6D. […] Lysates were analyzed for WASp expression by immunoblotting with anti-WASp and anti-GAPDH as loading control (FIG. 6A). […]

Row | Compound | increase in WASp expression (platelets after 15 min of activation, with vs without proteasome inhibitor (10 μM, 1 h)) | WASp degradation in activated platelets (40 μM, 15 min pre-incubation, vs DMSO control)
1 | CC(C)C[C@@H](C=O)NC(=O)[C@H](CC(C)C)NC(=O)[C@H](CC(C)C)NC(=O)OCc1ccccc1 [MG132] (Cbz-Leu-Leu-Leu-aldehyde) | more than 2 fold | –
2 | CC(=O)N[C@H]1C[C@@H](c2ccc3c(c2)nnn3C)O[C@@H](c2ccc(Cl)cc2)C1 [SMC #6, N-[(2R,4R,6S)-2-(4-chlorophenyl)-6-(1-methylbenzotriazol-5-yl)oxan-4-yl]acetamide] | – | attenuated WASp degradation
